Laboratory results from patent US11298372B2, “Composition for ameliorating loss of hair and graying of hair, and use thereof” (National University Corporation Tokyo Medical and Dental …, priority 2016, dated 2022).

Legend:
[1] = tested on: Col17A1; assay: Induction of COL17A1 expression in HaCat cells (Western blotting); type: cell-based, human; conditions: 48 hours
Experimental: HaCat cells (human epidermal keratinocyte strain) were seeded in 10% FBS-containing D-MEM medium in a 6-well plate at 1×10^5 cells per well, and apocynin was added to be 1-60 μM. After 48 hours of culturing, an anti-Col17A1 antibody was used as the primary antibody, and Western blotting was carried out. An anti-GAPDH antibody was used as the internal control. The 180 KDa band of Col17A1 and the internal control GAPDH band were quantified for their densities using an LAS-3000 luminescence image analyzer. […] HaCat cells (human epidermal keratinocyte strain) were seeded in 10% FBS-containing D-MEM medium in a 6-well plate at 1×10^5 cells per well, and ascorbic acid (Wako Pure Chemical Industries, Ltd.) was added to be 0.3-60 jag/ml. After 48 hours of culturing, an anti-Col17A1 antibody was used as the primary antibody, and Western blotting was carried out. An anti-β-tubulin antibody was used as the internal control. The 180 KDa band of Col17A1 and the internal control β-tubulin band were quantified for their densities using an LAS-3000 luminescence image analyzer. […] HaCat cells (human epidermal keratinocyte strain) were seeded in 10% FBS-containing D-MEM medium in a 6-well plate at 1×10^5 cells per well, and Marimastat (MMP inhibitor) was added to be 3 μM. After 48 hours of culturing, an anti-Col17A1 antibody was used as the primary antibody, and Western blotting was carried out. An anti-β-tubulin antibody was used as the internal control. The 180 KDa band of Col17A1 and the internal control β-tubulin band were quantified for their densities using an LAS-3000 luminescence image analyzer.

[2] = tested on: aged mice; assay: Comparison of the hair-increasing effects of apocynin and minoxidil in aged mice; type: in vivo, mouse; conditions: 17-month-old female C57BL/6NCrSIc mice, 100 μl of 200 μM solution applied for 28 days, day 14; comparator Ri-UP X5 PLUS (minoxidil 5 g/100 ml)
Experimental: Apocynin (A727200; Tront Research Chemicals) was adjusted to the concentration of 20 mM with DMSO, and 200 LM apocynin solution (1% apocynin 20 mM, 49% water, 50% ethanol) was prepared as the solution to be applied on mice. As the control solution, 1% DMSO (Sigma Aldrich), 49% water, 50% ethanol was prepared. For the minoxidil solution, Ri-UP X5 PLUS® (5 g/100 ml, Taisho Pharmaceutical Co., Ltd.) was used. After six 17-month-old female C57BL/6[…] mice were anesthetized by inhalation of isoflurane (Pfizer), the hair on the back of the neck was removed. The three mice in the minoxidil treatment group were applied with 100 μl of minoxidil, and the apocynin treatment group with 100 μl of the 200 μM apocynin solution for 28 days. For the follow-ups, photo images of the representative first day (day 1) and the last day (day 28) are shown (FIG. 12).

[3] = tested on: aged mice; assay: Hair-increasing effect in aged mice (application on the back of the neck); type: in vivo, mouse; conditions: 26-27-month-old female C57BL/6NCrSlc mice, 100 μl of 200 μM solution applied for 28 days, day 28
Experimental: Apocynin (A727200; Tront Research Chemicals) was adjusted to the concentration of 20 mM with DMSO, and 200 LM apocynin solution (1% apocynin 20 mM, 49% water, 50% ethanol) was prepared as the solution to be applied on mice. As the control solution, 1% DMSO (Sigma Aldrich), 49% water, 50% ethanol was prepared. After an anesthetic procedure was performed on five 27-month-old and one 26-month-old female C57BL/6[…] mice, hair on the back of the neck was removed. The three mice in the control solution treatment group were applied with 100 μl of the control solution, and the apocynin solution treatment group with 100 μl of the 200 μM apocynin solution for 28 days. For the follow-ups, photo images of the representative first day (day 1) and the last day (day 28) are shown (FIG. 11).

[4] = tested on: irradiated mice; assay: Application test on the back of irradiated mice; type: in vivo, mouse; conditions: 7-week-old male C57BL/6NCrSlc mice, 5 Gy, 10 mg/ml in DMSO 125 μl applied on the back once a day, 5 times
Experimental: The hair on the lower back of 7-week-old male C57BL/6NCrSlc mice was removed. Sivelestat was dissolved in DMSO to be 10 mg/ml and 125 μl (=[…]) thereof was applied on the back of the sivelestat group mice. On the back of the control group mice, 125 μl of DMSO was applied. After application on the back, the skin of the two groups of mice (day 0) was irradiated with a low voltage radiation of 5 Gy using CABINET X-RAY SYSTEM (Faxitron X-ray Corporation). Up to day 4, the same medicinal agents described above were applied on the back once a day (for a total of 5 times), and weekly follow-ups were carried out after that.

[5] = tested on: irradiated mice; assay: Test of intradermal administration in irradiated mice; type: in vivo, mouse; conditions: 7-week-old male C57BL/6NCrSlc mice, 5 Gy, 5 mg/ml in DMSO 200 μl (1000 μg) intradermally once a day, 5 times
Experimental: The hair on the lower back of 7-week-old male C57BL/6NCrSlc mice was removed. Sivelestat was dissolved in DMSO to be 5 mg/ml and 200 μl (=1000 μg) thereof was administered intradermally on back of the sivelestat group mice. On the back of the control group mice, 200 μl of DMSO was administered intradermally. After intradermal administration, the skin of the two groups of mice (day 0) was irradiated with a low voltage radiation of 5 Gy using CABINET X-RAY SYSTEM (Faxitron X-ray corporation). Up to day 4, the same medicinal agents described above were intradermally administered on the back once a day (for a total of 5 times), and weekly follow-ups were carried out after that.

## O=C1O[C@H]([C@@H](O)CO)C(O)=C1O [ascorbic acid]
[1]; ascorbic acid 0.3-60 jag/ml, β-tubulin internal control
  Col17A1 expression (180 KDa band, Western blotting): increase of Col17A1 was observed along with the increase of ascorbic acid

## COc1cc(C(C)=O)ccc1O [apocynin]
[1]; apocynin 1-60 μM, GAPDH internal control
  Col17A1 expression (180 KDa band, Western blotting): increase of Col17A1 was observed along with the increase of apocynin
[2]
  hair growth effect versus minoxidil: significant hair growth effect compared to the minoxidil-administered group
[3]
  hair growth effect versus control solution: significant hair growth effect compared to the control group

## CNC(=O)[C@@H](NC(=O)[C@H](CC(C)C)[C@H](O)C(=O)NO)C(C)(C)C [Marimastat]
[1]; Marimastat 3 μM, β-tubulin internal control
  Col17A1 expression (180 KDa band, Western blotting): increase of Col17A1 was observed

## CC(C)(C)C(=O)Oc1ccc(S(=O)(=O)Nc2ccccc2C(=O)NCC(=O)[O-])cc1.O.O.O.O.[Na+] [Sivelestat, Monosodium N-{2-[4-(2,2-dimethylpropanoyloxy)-phenylsulfonylamino]benzoyl}aminoacetate tetrahydrate]
[4]
  hair growth versus control group: tendency to grow faster
[4]; 14 weeks and 28 weeks
  graying: suppression of graying was seen
[5]
  hair growth versus control group: tendency to grow more
[5]; 14 weeks and 28 weeks
  graying: suppression of graying was seen
